The subject of one data set is Factor VII. Kind of data set: Factor VII activity assay, in vivo liver delivery of FVII siRNA LNP. Set-up: species or system mouse. The note with it: dose 1 mg/kg siRNA i.v., ~48 h; lipid/no neutral lipid/CHOL/GM-020 NOF 60/0/36/4, N/P 3. In short, it runs like this:
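Female CD-1 mice (~25 g) given a single i.v. tail-vein dose of FVII siRNA in LNPs (cationic, stealth, neutral lipids), dosed as mg siRNA/kg. Plasma collected ~48 h post-injection; FVII activity read against a standard curve from pooled vehicle-control plasma.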

A short description of data set [1]: Particle size and PDI by dynamic light scattering (Malvern Zetasizer). In kind it is physicochemical. The settings on record: for Final size: LNP formulation. Set-up: Final size: unit not given here. In short, it runs like this: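 Nanoparticles diluted in PBS to a count rate of about 200-400 kcts and measured by dynamic light scattering; size given as intensity-weighted average diameter, with polydispersity index from the same measurement.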

Data set [2] is described as follows: pKa of the lipid by TNS fluorescence. In kind it is physicochemical. The settings on record: pKa. In short, it runs like this: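 Lipid dissolved in ethanol (2 mM stock) and measured with TNS across eight buffers of differing pH, in water at standard temperature and pressure. Normalized fluorescence intensity plotted against pH and points joined by a smooth line to derive pKa, precise to about 0.2 units.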

The test system of data set [3] is PLK-1 mRNA in Hep3B tumors. In words: Hep3B tumor study, PLK-1 mRNA KD in tumor tissue. In kind it is in vivo, human. The note with it: for PLK1 inhibition %: Hep3B tumor, mouse, i.v., LNP composition as in the source; for % KD: Table 9 experiment.
In data set [4] the test system is PLK-1 mRNA in HepG2 tumors. Kind of data set: HepG2 tumor study, PLK-1 mRNA KD in tumor tissue. In kind it is in vivo, human. The note with it: Mus musculus, HepG2, iv, 24 h, HepG2 tumor in nude mice, 3 × 3 mg/kg siRNA iv, tumors harvested 24 hrs after the last dose; read-out: PLK1 % inhibition. The source says: (§1) Formulated siRNAs are made up of double stranded siRNA sequences specific to a target mRNA sequence, and are in the form of lipid nucleotid particles (LNPs) containing cationic lipids, stealth lipids and neutral lipids, as provided in the Examples below. The siRNA construct for use in targeting the liver is specific to Factor VII. The siRNA construct for use in targeting tumors is specific to PLK1-424, which is published by Judge et al., See, J Clin Invest. 2009 March; 119(3):661-73; doi: 10.1172/JCI37515). • 1. FVII siRNA duplex sequence
HepG2 tumors are established in female nude mice by sc injection of 5×10^6 cells in 100 ul PBS into the left flank. Mice are randomized into treatment groups 10-14 days after seeding as tumors reached an average size of 150 mm^3. siRNA formulated LNP formulations are administered at 3×3 mg/kg dose levels intravenously via the lateral tail vein calculated on a mg siRNAs/kg basis according to individual animal weights (10 ml/kg injection volume). Mice are euthanized by CO2 inhalation at various time points and the tumors are harvested 24 hrs after the last dose for mRNA quantitation. Lipids with a wide range of pKa (5.3-6.6) are used in the LNP formulations. Tumors are measured in 2 dimensions (width×length) to assess tumor growth using digital calipers. Tumor volume is calculated using the equation [a×b×b/2], where a=largest diameter and b=smallest diameter.
About 30-50 mg tumor tissue is homogenized in tissue lysis buffer in a Qiagen homogenizer followed by centrifugation to clarify lysates. Total RNA is isolated using RNeasy isolation kit (catalog number 74106) according to the manufacture's protocol. PLK-1 mRNA is analyzed by quantitative PCR and normalized to human GAPDH. Applied Biosystems human PLK-1 gene expression assay Hs00983229_m1 and human GAPDH endogenous control cat number 4326317E are used for mRNA detection.
The pKa in all tables refers to the pKa of the cationic lipid. Where multiple doses are indicated (e.g., 3×5), the first number indicates the number of doses given and the second number indicates the amount per dose in mg siRNA (biologically active agent) per kg mouse. In general the multiple doses are administered at 24 hour intervals, and tissues for mRNA quantitation are harvested 24 hours after the last dose.

The subject of data set [5] is PLK-1 mRNA in 786-0 tumors. Kind of data set: 786-0 renal tumor study, PLK-1 mRNA KD in tumor tissue. The note with it: tumors collected 48 hrs after the single dose, read-out: PLKI % Inhibition. In kind it is in vivo, human.
Excerpt: as §1
786-0 tumors are established as described before by sc injection of 10×10^6 cells in 200 ul PBS. 4 weeks post implantation, the mice with the tumor size ranging from 200-250 mm^3 are randomized into treatment groups. siRNA formulated LNPs are then intravenously administered at either 5 or 10 mg/kg dose levels. 48 hrs after the single dose, tumors are collected for mRNA quantitation.
About 30-50 mg tumor tissue is homogenized in tissue lysis buffer in a Qiagen homogenizer followed by centrifugation to clarify lysates. […] PLK-1 mRNA is analyzed by quantitative PCR and normalized to human GAPDH. […]
The pKa in all tables refers to the pKa of the cationic lipid. […] In general the multiple doses are administered at 24 hour intervals, and tissues for mRNA quantitation are harvested 24 hours after the last dose.

[6] abbreviates: LNP formulation with PLK1 siRNA, helper, neutral and stealth lipid, molar ratio and N/P as in the table, stealth lipid S004, molar ratio 45/43/10/2, N/P 4.
Where [7] appears, read: LNP formulation with PLK1 siRNA, helper, neutral and stealth lipid, molar ratio and N/P as in the table, stealth lipid S004, molar ratio 50/48/2, N/P 4.
Where [8] appears, read: lipid/no neutral lipid/CHOL/GM-020 NOF 60/0/36/4, N/P 3.
[9] abbreviates: LNP formulation with PLK1 siRNA, helper, neutral and stealth lipid, molar ratio and N/P as in the table, stealth lipid S004, molar ratio 50/43/5/2, N/P 4.
[10] abbreviates: LNP formulation with PLK1 siRNA, helper, neutral and stealth lipid, molar ratio and N/P as in the table.

One may read the pKa as the pH at which an ionisable group is half protonated. The inhibition is the percentage by which the read-out fell short of the control. Regarding `CCCCC/C=C\C/C=C\CCCCCCCCOCC(CN1CCCCC1)OCCO[C@H]1CC[C@@]2(C)C(=CC[C@H]3[C@@H]4CC[C@H]([C@H](C)CCCC(C)C)[C@@]4(C)CC[C@@H]32)C1` (stereo partly shown) [E0076], in the data set with Factor VII, the FVII inhib % was found to be 29.3%. In addition, the “Final size (nm)” value in data set [1] (setting [6]) is recorded as 80.98 nm; in data set [1] (setting [7]), 86.03 nm; in data set [1] (LNP formulation with PLK1 siRNA, helper, neutral and stealth lipid, molar ratio and N/P as in the table, stealth lipid S011, molar ratio 60/38/2, N/P 4) it was 89.89 nm; in data set [1] (setting [8]), 89.47 nm. The same compound showed a Final size in data set [1] (Table 10) of 86.03. This compound had a PDI in data set [1] (setting [8]) of 0.143. The compound also returned a pKa in data set [2] of 5.85. Further, the figures for the PLK1 inhibition % in data set [3] (1 × 0.1 mg siRNA/kg) and in data set [3] (1 × 5 mg siRNA/kg) were 0% and 85%, respectively. For the same compound, the inhibition at 3 mg/kg in data set [4] worked out at 35%.

As to `CCCCCCCC/C=C\CCCCCCCCOCC(CN1CCOCC1)OCCOCCO[C@H]1CC[C@@]2(C)C(=CC[C@H]3[C@@H]4CC[C@H]([C@H](C)CCCC(C)C)[C@@]4(C)CC[C@@H]32)C1` (stereo partly shown) [E0085], the “Final size (nm)” value worked out at 76.8 nm in data set [1] (setting [6]); 88.33 nm in data set [1] (LNP formulation with PLK1 siRNA, helper, neutral and stealth lipid, molar ratio and N/P as in the table, stealth lipid S004, molar ratio 50/38/10/2, N/P 4); 87.74 nm in data set [1] (setting [9]); 96.42 nm in data set [1] (LNP formulation with PLK1 siRNA, helper, neutral and stealth lipid, molar ratio and N/P as in the table, stealth lipid S004, molar ratio 50/48/0/2, N/P 4); 90.06 nm in data set [1] (LNP formulation with PLK1 siRNA, helper, neutral and stealth lipid, molar ratio and N/P as in the table, stealth lipid S004, molar ratio 60/38/2, N/P 4); 81.83 nm in data set [1] (LNP formulation with PLK1 siRNA, helper, neutral and stealth lipid, molar ratio and N/P as in the table, stealth lipid S011, molar ratio 40/48/10/2, N/P 4). Besides, the Final size in data set [1] (Table 10) was found to be 76.8. Also, the pKa in data set [2] was 5.32. For the same compound, the PLK1 inhibition % in data set [3] (1 × 0.1 mg siRNA/kg) was found to be 53%; in data set [3] (1 × 2 mg siRNA/kg), 62%; in data set [3] (1 × 5 mg siRNA/kg), 69%; in data set [3] (1 × 10 mg siRNA/kg), 55%. Besides, the inhibition at 3 mg/kg in data set [4] came to 40%.

Take `CCCCC/C=C\C/C=C\CCCCCCCCOCC(CN1CCCCC1)OCCOC(=O)CCC(=O)O[C@H]1CC[C@@]2(C)C(=CC[C@H]3[C@@H]4CC[C@H]([C@H](C)CCCC(C)C)[C@@]4(C)CC[C@@H]32)C1` (stereo partly shown) [E0104]: the inhibition at 5 mg/kg in data set [5] (1 × 5 mg/kg iv) came to 55%. Moreover, the inhibition at 10 mg/kg in data set [5] (1 × 10 mg/kg iv) was determined as 50%. Moreover, the Final size in data set [1] (Table 11, lipid molar ratio 45/43/10/2) was 87.59; in data set [1] (Table 11, lipid molar ratio 50/48/2), 95.05. In addition, the pKa in data set [2] is 6.1. Further, the PLK1 inhibition % is listed as 48% in data set [3] (1 × 1 mg siRNA/kg, stealth lipid S004, molar ratio 50/48/2, N/P 3) and 50% in data set [3] (1 × 1 mg siRNA/kg, stealth lipid S004, molar ratio 50/48/2, N/P 4). The inhibition at 3 mg/kg in data set [4] was found to be 32%.

In the case of `CCCCCCCC/C=C\CCCCCCCCOCC(CN1CCCC(C)C1)OCCOCCO[C@H]1CC[C@@]2(C)C(=CC[C@H]3[C@@H]4CC[C@H]([C@H](C)CCCC(C)C)[C@@]4(C)CC[C@@H]32)C1` (stereo partly shown) [E0119], the “Final size (nm)” value in data set [1] (setting [10]) was determined as 99.37 nm. The same compound had a Final size in data set [1] (Table 10) of 99.37. Besides, the pKa in data set [2] was 5.82. In data set [3] (1 × 1 mg siRNA/kg), this compound came in with a PLK1 inhibition % of 40%. For the same compound, in data set [4], the inhibition at 3 mg/kg was found to be 22%.

Regarding `CCCCC/C=C\C/C=C\CCCCCCCCOC[C@@H](CN1CCC[C@@H]1C)OCCCOC(=O)CCC(=O)O[C@H]1CC[C@@]2(C)C(=CCC3C2CC[C@@]2(C)C3CC[C@@H]2[C@H](C)CCCC(C)C)C1` (stereo partly shown) [E0161], the “Final size (nm)” value in data set [1] (setting [10]) was found to be 101.4 nm. Besides, the Final size in data set [1] (Table 10) was 101.4. In data set [2], this compound yielded a pKa of 6.3. Besides, in data set [3] (1 × 1 mg siRNA/kg), the PLK1 inhibition % came to 45%. For the same compound, the inhibition at 3 mg/kg in data set [4] is 0%.

Turning to `CCCCC/C=C\C/C=C\CCCCCCCCOCC(CN1CCOCC1)OCCOCCNC(=O)O[C@H]1CC[C@@]2(C)C(=CC[C@H]3[C@@H]4CC[C@H]([C@H](C)CCCC(C)C)[C@@]4(C)CC[C@@H]32)C1` (stereo partly shown) [E0176], the “Final size (nm)” value in data set [1] (setting [10]) is 99.14 nm. In data set [1] (Table 10), this compound showed a Final size of 99.14. In data set [2], the pKa turned out to be 5.56. The compound also came in with a PLK1 inhibition % in data set [3] (1 × 1 mg siRNA/kg) of 36%. Moreover, the inhibition at 3 mg/kg in data set [4] turned out to be 37%.

With `CCCCCCCC/C=C\CCCCCCCCOCC(CN1CCCCC1)OCCCOC(=O)CCC(=O)O[C@H]1CC[C@@]2(C)C(=CC[C@H]3[C@@H]4CC[C@H]([C@H](C)CCCC(C)C)[C@@]4(C)CC[C@@H]32)C1` (stereo partly shown) [E0178], the figures for the “Final size (nm)” value in data set [1] (setting [9]) and in data set [1] (setting [7]) were 94.67 nm and 88.39 nm, respectively. This compound also registered a Final size in data set [1] (Table 10) of 94.67. In data set [2], this compound yielded a pKa of 5.92. Also, the PLK1 inhibition % in data set [3] (1 × 0.1 mg siRNA/kg) came to 0%. Further, the “% KD” value in data set [3] (0.1 mg/kg) was determined as 0%; in data set [3] (1.0 mg/kg) it was 35%. Besides, the inhibition at 3 mg/kg in data set [4] was determined as 0%.

For the origin of these results see US9301923B2, “Lipids, lipid compositions, and methods of using them” (NOVARTIS AG, priority 2009, dated 2016).
